The values that follow come from patent publication US7824872B2, “Pharmaceutical agents” (Theravalues Corporation, priority 2003, dated 2010).

What all share (assay type): cell-based
The test system of one experiment is Pim-1. Description: Western blotting of Pim-1 in cells cultured with a proteasome inhibitor. To be noted: PCI-43 cells, normoxia, 50 μM ALLN, 6 and 12 hours. As for the experimental part:
The cells used were HCT116 (colon cancer cell line), HePG2 (liver cancer cell line), KMP-4 (pancreatic cancer cell line), PCI-10 (pancreatic cancer cell line), PCI-35 (pancreatic cancer cell line), and PCI-43 (pancreatic cancer cell line). Each type of cell was cultured for 16 hours under hypoxia (1% oxygen, 5% carbondioxide), or normoxia (20% oxygen, 5% carbondioxide). RNA was extracted from the cultured cells using Trizol reagent, and proteins were extracted from the cultured cells using 1% NP-40 lysis buffer ([…] pH7.5, […], 2 μM EDTA, 1 μM EGTA, 50 μM NaF, 1 μM Na3VO4, 1 mM PMSF).
Proteins were detected by Western blotting. More specifically, the above-mentioned samples were electrophoresed through 12% polyacrylamide gels, and then blotted onto nitrocellulose membranes. The membranes were blocked with blocking buffer (5% skim milk, in physiological Tween-phosphate buffer), reacted with anti-Pim-1 antibody for one hour, then incubated with peroxidase-conjugated goat anti-mouse IgG secondary antibody, and detected using an ECL detection kit (Amersham).
Whether or not Pim-1 is degraded by proteases under normoxia was investigated. PCI-43 cells were cultured under hypoxia and normoxia. Cells cultured under hypoxia were sampled before culturing, and after culturing for 4, 12, and 24 hours. […]

Experiment [1] concerns PCI-43 cells. Description: Number of live cells after 48 hours of treatment with anticancer agents (IC50). To be noted: concentration halving the number of live cells. The method, then: (§1) The sensitivity of solid cancer cells to anticancer agents under low and normal oxygen partial pressures was investigated. Three types of solid pancreatic cancer cell lines (PCI-35 cells, KMP-4 cells, and PCI-43 cells) were used as the cells. For each type of cell, 2×10^3 cells were cultured for six hours in the presence of 50 μg/mL of cisplatin under low oxygen partial pressure (1% oxygen, 5% carbondioxide; hereinafter, the same values in the Examples) or normal oxygen partial pressure (20% oxygen, 5% carbondioxide; hereinafter, the same values in the Examples). After culturing, the cells were washed twice with physiological phosphate buffer (pH7.4) to prepare samples. Dulbecco's Modified Eagle's Medium/F12 was used as the medium for culturing (hereinafter, unless particularly specified, use of the same medium is assumed).
Using gemcitabine, adriamycin, and cisplatin, and using PCI-43 cells, measurements were made as in Example 1. The concentrations of gemcitabine and adriamycin were 0.1 to 1 μmol and 0.1 to 5 μmol, respectively. IC50 values were calculated from the measured results, as shown below.
The number of live cells was determined after 48 hours of treatment with various concentrations of anticancer agents, and the concentrations of anticancer agents needed to half the number of live cells present when the various anticancer agents were not added were defined as IC50 values.

For experiment [2], the system named is PCI-35 cells, KMP-4 cells, and PCI-43 cells. Kind of experiment: FACS analysis of apoptosis (PI / anti-anexin V staining) under hypoxia and normoxia, three pancreatic cancer cell lines. To be noted: 50 μg/mL cisplatin, six hours, PCI-35, KMP-4 and PCI-43 cells. As for the experimental part: as §1
(§2) The cells described above were stained with propidium iodide (PI) and FITC-conjugated anti-anexin V, and FACS analysis was performed using FACS calibur (Becton Dickinson).
In FIG. 1, “Normoxia” means under normal oxygen partial pressure, and “Hypoxia” means under low oxygen partial pressure (the same hereinafter). The FACS analyses in the Examples can be described as staining of cells with PI and anti-anexin V, and sorting of cells based on the intensity of staining to show distributions such as those in FIG. 1. […]
(In general: Flow cytometry measures light scatter and fluorescence of single cells or particles in a stream.)

For experiment [3], the system named is PCI-43 cells. Kind of experiment: FACS analysis of apoptosis (PI / anti-anexin V staining) under hypoxia and normoxia. To be noted: 50 μg/mL cisplatin, 12 and 24 hours. As for the experimental part: as §1, §2
In FIG. 1, “Normoxia” means under normal oxygen partial pressure, and “Hypoxia” means under low oxygen partial pressure (the same hereinafter). […]
PCI-43 cells were cultured for up to 24 hours under the same conditions as in Example 1. Samples obtained before culturing, and after culturing for 12 hours and 24 hours were analyzed as in Example 1. […]

Setting [4] is: hypoxia (1% oxygen, 5% carbondioxide), read-out: IC50 (μM), Hypoxia.
Where [5] appears, read: normoxia (20% oxygen, 5% carbondioxide), read-out: IC50 (μM), Normoxia.

Read-outs that look alike come from different tables or passages of the source. Where a SMILES comes first, the peptide text is derived from it. [ ]: non-standard residue; d: D form. Nle = CCCC[C@H](N)C(=O)O

As for `CCCC[C@@H](C=O)NC(=O)[C@H](CC(C)C)NC(=O)[C@H](CC(C)C)NC(C)=O` [ALLN, N-acetyl-L-leucinyl-L-leucinyl-L-norleucinal] (Ac-Leu-Leu-[Nle]-aldehyde), in the experiment on Pim-1, the “amount of Pim-1 (Western blotting)” value is reported as “the amount of Pim-1 also increased with time under normoxia”.
As for `Nc1ccn([C@@H]2O[C@H](CO)[C@@H](O)C2(F)F)c(=O)n1` [Gemcitabine, gemcitabine], the results for the IC50 with PCI-43 cells [1] (setting [4]) and with PCI-43 cells [1] (setting [5]) were 1.56 µM and 0.272 µM, respectively.
As to `COc1cccc2c1C(=O)c1c(O)c3c(c(O)c1C2=O)C[C@@](O)(C(=O)CO)C[C@@H]3O[C@H]1C[C@H](N)[C@H](O)[C@H](C)O1` [Adriamycin, adriamycin], the IC50 came to 1.9 µM in the experiment on PCI-43 cells [1] (setting [4]) and 0.3 µM in the experiment on PCI-43 cells [1] (setting [5]).
In the case of `N.N.[Cl][Pt][Cl]` [Cisplatin, cisplatin], the “induction of apoptosis under normoxia compared with hypoxia” value in experiment [2] was “approximately twice that under hypoxia”. Besides, the “proportion of apoptotic cells under hypoxia compared with normoxia” value in the experiment with PCI-43 cells [3] was “approximately half that under normoxia”. In addition, the results for the IC50 in the experiment on PCI-43 cells [1] (setting [4]) and in the experiment with PCI-43 cells [1] (setting [5]) were 27.7 µM and 18.6 µM, respectively.

In general, IC50 refers to the concentration that gives 50% inhibition.
